These results are taken from the NIST ThermoML archive (doi:10.1021/je400487e).

The conditions of this data set: 298.15 K; 101.33 kPa; Liquid; Vibrating tube method.

Numbers after ± are expanded uncertainties.

For the molecule `CC(C)CC(C)(C)C` [2,2,4-trimethylpentane], the mass density is recorded as 687.77 ± 0.26 kg/m3.
In the case of `CC(=O)N(C)C` [N,N-dimethylethanamide], the mass density came out at 936.88 ± 0.26 kg/m3.
`C1CCCCCCC1` [cyclooctane]: the mass density turned out to be 831.87 ± 0.26 kg/m3.
To `CCCCCCCCCC` [decane] belongs 726.43 ± 0.26 kg/m3; to `CCCCCCCCCCCC` [dodecane], 741.54 ± 0.26 kg/m3; to `CC1CCCCC1` [methylcyclohexane], 764.86 ± 0.26 kg/m3.
`CCCCCCCCCCCCCC` [tetradecane]: the mass density is 759.27 ± 0.26 kg/m3.
